Laboratory results as given in patent publication US6734194B2, “Method of use of (imidazol-5-yl)methyl-2-quinolinone derivatives to inhibit smooth muscle cell proliferation” (Janssen Pharmaceutica N.V., priority 1997, dated 2004).

Assays:
Assay type in all cases: cell-based
[1] = test system: human coronary artery smooth muscle cells (CASMC); assay: Inhibition of smooth muscle cell proliferation, CASMC; details: 144 h, CASMC cell line, incubated six days, Coulter cell count normalized to DMSO-treated controls, read-out: IC50 (concentration of test compound producing a 50% inhibition of cell proliferation)
From the text: (§1) The effects of the compounds of the present invention were studied in human pulmonary artery smooth muscle cells (PASMC), human coronary artery smooth muscle cells (CASMC), and rat A10 arterial smooth muscle cells growing under standard tissue culture conditions. CASMC and PASMC cell cultures were purchased from Clonetics (San Diego, Calif.). A10 smooth muscle cells were purchased from the American Type Culture Collection (Bethesda, Md.). Cells were inoculated at an initial cell density of 50,000 cells per well in six-well plastic cluster tissue culture dishes in 3.0 ml of complete growth medium. Test compounds were dissolved in dimethysulfoxide (DMSO) and added in a 3 μl volume to each well to produce the desired concentrations of said test compound (5, 10, 50, 100 and 500 nM final concentrations). Cells were incubated for six days. On day 4, fresh medium plus a fresh solution containing the test compound were added to the cell cultures. On day 6, the growth medium was removed by aspiration. The cells were detached by trypsinizing in 1.0 ml of trypsin-EDTA solution. The cell suspensions were transferred to 20 ml of an isotonic diluent and 0.5 ml of the diluted cell suspension was counted with a Coulter particle counter. Cell counts from test compound-treated cultures were normalized to cell counts obtained from DMSO-treated controls and expressed as percent inhibition. […]

[2] = test system: human pulmonary artery smooth muscle cells (PASMC); assay: Inhibition of smooth muscle cell proliferation, PASMC; details: 144 h, PASMC cell line, incubated six days, Coulter cell count normalized to DMSO-treated controls, read-out: IC50 (concentration of test compound producing a 50% inhibition of cell proliferation)
From the text: as §1

[3] = test system: rat A10 arterial smooth muscle cells; assay: Inhibition of smooth muscle cell proliferation, A10 cells; details: 144 h, A10 cell line, incubated six days, Coulter cell count normalized to DMSO-treated controls, read-out: IC50 (concentration of test compound producing a 50% inhibition of cell proliferation)
From the text: as §1

With `Cn1cncc1C(N)(c1ccc(Cl)cc1)c1ccc2c(c1)c(-c1cccc(Cl)c1)cc(=O)n2C` (single isomer, unassigned; (+)) [Co. No. 75, (+)-6-[amino(4-chloro-phenyl)(1-methyl-1H-imidazol-5-yl)methyl]-4-(3-chlorophenyl)-1-methyl-2(1H)-quinolinone] the IC50 [1] was 16 nM, the IC50 [2] was 24 nM and the IC50 [3] was 14 nM.
